Test system: 817829-284-R-J1-PDC spheroids with HUVEC/MSC, viability
Assay: Anticancer human tumor 817829-284-R-J1-PDC patient-derived colon adenocarcinoma cell line growth inhibition [TAK]
Settings: for IC50: curve of first compound; for viability, T/C: stronger effect = lower value
From the text: Combinatorial screen of targeted agents with TAK-243 and ipatasertib in multi-cell type tumor spheroids
A high-throughput screen of multi-cell type tumor spheroids was designed to identify active combinations of targeted small molecules and TAK-243 or ipatasertib. Complex spheroids include a stromal component modeled by human endothelial cells (HUVEC) and fibroblasts modeled by human mesenchymal stem cells (MSCs). The concentration ranges selected for each drug and investigational agent were based upon clinically achievable concentrations if the clinical Cmax of the agent was known.
Compounds. The drugs and investigational agents: TAK-243 (785004), ipatasertib (767898), everolimus (733504), selumetinib (741078), bortezomib (756655), trametinib (758246), ixazomib (758254), vemurafenib (761431), dabrafenib (764134), sapanisertib (764658), alpelisib (765974), and copanlisib (816437), were obtained from the National Cancer Institute (NCI) Developmental Therapeutics Program Chemical Repository. The FDA-approved anticancer drug set is available from the NCI Developmental Therapeutics Program. […] The stock solutions were prepared in dimethyl sulfoxide (DMSO, Sigma-Aldrich, St. Louis, MO, cat. D2650) at 800-fold the tested concentration and stored at -70 degrees C prior to their use. All drugs and investigational agents were tested over a range starting from a high concentration at or near the clinical Cmax and decreasing in half-log increments. If the clinical Cmax for an agent had not been determined, the highest concentration tested was 10 microM.
NCI60 Cell Culture. NCI60 cell lines were obtained from the NCI Developmental Therapeutics Program Tumor Repository. For each lot of cells, the Repository performed Applied Biosystems AmpFLSTR Identifiler testing with PCR amplification to confirm consistency with the published Identifier STR profile for each cell line. Cells were kept in continuous culture for no more than 20 passages. The optimal seeding densities for each of the cell lines at each time point assessed were determined prior to performing the concentration response studies. Briefly, the NCI60 human tumor lines were grown as monolayers in RPMI 1640 medium supplemented with 10% FBS and 2 mmol/L L-glutamine.
An additional 2 lines were from the NCI60 cell line panel including melanomas, MALME-3M and SK-MEL-2. Pooled donor human umbilical vein endothelial cells (HUVEC, Lonza, cat. CC-2519) and human mesenchymal stem cells (hMSC, Lonza, cat. PT-2501) were purchased from Lonza (Walkersville, MD).
PDMR cell lines were grown in complete medium (DC medium): Dulbecco's modified Eagle's medium (DMEM)/F12 supplemented with 5% fetal bovine serum (FBS), 2 mM L-glutamine, 100 U/mL penicillin and 100 µg/ml streptomycin, 0.4 µg/ml hydrocortisone, 10 ng/ml epidermal growth factor (EGF) recombinant human protein, 24 µg/mL adenine, and 0.1 mg/mL primocin. During culture from frozen stock vials, PDMR cells were cultured in the same medium containing 10 µM Y-27632 (see Table 3). The PDCs were cultured in complete DMEM/F12 media without 10 microM Y-27632 dihydrochloride for at least two passages prior to the screen. The pooled donor HUVEC and hMSC were cultured in endothelial cell growth medium 2 (PromoCell, Heidelberg, Germany, cat. C-22011) and mesenchymal stem cell growth medium 2 (PromoCell, cat. C-28009), respectively. For all experiments, HUVEC and hMSC were used at passages </=5.
For the pre-screen, cell seeding densities were determined from a titration spanning the range from 5,000 to 313 cells per well. The mct-spheroids including 60% malignant cells, 25% HUVEC and 15% MSC dispensed as a mixture into U-bottom Ultra-Low Attachment 384-well plates (Corning, NY)
High-throughput Drug Combination Screening.
Prior to their inoculation into 384-well plates, malignant cells, HUVEC, and hMSC were removed from T flasks using TrypLE express (Thermo Fisher Scientific, cat. 12605036) and harvested by centrifugation for 5 min at 233 x g. […]

[1] = second compound 0.3 µM, first compound 0.0316 µM
[2] = second compound 0.3 µM, first compound 0.1 µM
[3] = second compound 0.3 µM, first compound 0.316 µM
[4] = second compound 0.3 µM, first compound 1 µM
[5] = second compound 0.3 µM, first compound 3.16 µM
[6] = second compound 0.3 µM, first compound 10 µM
[7] = second compound 0.949 µM, first compound 0.0316 µM
[8] = second compound 0.949 µM, first compound 0.1 µM
[9] = second compound 0.949 µM, first compound 0.316 µM
[10] = second compound 0.949 µM, first compound 1 µM
[11] = second compound 0.949 µM, first compound 3.16 µM
[12] = second compound 0.949 µM, first compound 10 µM
[13] = second compound 3 µM, first compound 0.0316 µM
[14] = second compound 3 µM, first compound 0.1 µM
[15] = second compound 3 µM, first compound 0.316 µM
[16] = second compound 3 µM, first compound 1 µM
[17] = second compound 3 µM, first compound 3.16 µM
[18] = second compound 3 µM, first compound 10 µM
[19] = second compound 9.49 µM, first compound 0.0316 µM
[20] = second compound 9.49 µM, first compound 0.1 µM
[21] = second compound 9.49 µM, first compound 0.316 µM
[22] = second compound 9.49 µM, first compound 1 µM
[23] = second compound 9.49 µM, first compound 3.16 µM
[24] = second compound 9.49 µM, first compound 10 µM
[25] = second compound 30 µM, first compound 0.0316 µM
[26] = second compound 30 µM, first compound 0.1 µM
[27] = second compound 30 µM, first compound 0.316 µM
[28] = second compound 30 µM, first compound 1 µM
[29] = second compound 30 µM, first compound 3.16 µM
[30] = second compound 30 µM, first compound 10 µM
[31] = second compound 0.3 µM, first compound 0.000316 µM
[32] = second compound 0.3 µM, first compound 0.001 µM
[33] = second compound 0.3 µM, first compound 0.00316 µM
[34] = second compound 0.3 µM, first compound 0.01 µM
[35] = second compound 0.949 µM, first compound 0.000316 µM
[36] = second compound 0.949 µM, first compound 0.001 µM
[37] = second compound 0.949 µM, first compound 0.00316 µM
[38] = second compound 0.949 µM, first compound 0.01 µM
[39] = second compound 3 µM, first compound 0.000316 µM
[40] = second compound 3 µM, first compound 0.001 µM
[41] = second compound 3 µM, first compound 0.00316 µM
[42] = second compound 3 µM, first compound 0.01 µM
[43] = second compound 9.49 µM, first compound 0.000316 µM
[44] = second compound 9.49 µM, first compound 0.001 µM
[45] = second compound 9.49 µM, first compound 0.00316 µM
[46] = second compound 9.49 µM, first compound 0.01 µM
[47] = second compound 30 µM, first compound 0.000316 µM
[48] = second compound 30 µM, first compound 0.001 µM
[49] = second compound 30 µM, first compound 0.00316 µM
[50] = second compound 30 µM, first compound 0.01 µM

## CC(C)(C)c1nc(-c2cccc(NS(=O)(=O)c3c(F)cccc3F)c2F)c(-c2ccnc(N)n2)s1 + CC(C)NCC(C(=O)N1CCN(c2ncnc3c2C(C)CC3O)CC1)c1ccc(Cl)cc1
Second compound 0.3 µM
  IC50: 110 nM
Second compound 0.949 µM
  IC50: < 31.6 nM
Second compound 3 µM
  IC50: < 31.6 nM
Second compound 9.49 µM
  IC50: < 31.6 nM
Second compound 30 µM
  IC50: < 31.6 nM
[1]
  viability, T/C: 77.1%
[2]
  viability, T/C: 52.1%
[3]
  viability, T/C: 27.6%
[4]
  viability, T/C: 18%
[5]
  viability, T/C: 20%
[6]
  viability, T/C: 40.6%
[7]
  viability, T/C: 27.6%
[8]
  viability, T/C: 31.9%
[9]
  viability, T/C: 22.4%
[10]
  viability, T/C: 15.3%
[11]
  viability, T/C: 15.6%
[12]
  viability, T/C: 20.1%
[13]
  viability, T/C: 15.9%
[14]
  viability, T/C: 16.9%
[15]
  viability, T/C: 13.4%
[16]
  viability, T/C: 11.1%
[17]
  viability, T/C: 11%
[18]
  viability, T/C: 13.7%
[19]
  viability, T/C: 9.35%
[20]
  viability, T/C: 10.3%
[21]
  viability, T/C: 9.8%
[22]
  viability, T/C: 7.09%
[23]
  viability, T/C: 6.36%
[24]
  viability, T/C: 9.46%
[25]
  viability, T/C: 5.5%
[26]
  viability, T/C: 5.14%
[27]
  viability, T/C: 5.38%
[28]
  viability, T/C: 3.29%
[29]
  viability, T/C: 3.24%
[30]
  viability, T/C: 4.85%

## CC(C)CC(NC(=O)CNC(=O)c1cc(Cl)ccc1Cl)B1OC(=O)CC(CC(=O)O)(C(=O)O)O1 (stereo not given) + CC(C)NCC(C(=O)N1CCN(c2ncnc3c2C(C)CC3O)CC1)c1ccc(Cl)cc1
Second compound 0.3 µM
  IC50: 15.9 nM
Second compound 0.949 µM
  IC50: < 0.316 nM
Second compound 3 µM
  IC50: < 0.316 nM
Second compound 9.49 µM
  IC50: < 0.316 nM
Second compound 30 µM
  IC50: < 0.316 nM
[31]
  viability, T/C: 103%
[32]
  viability, T/C: 93.4%
[33]
  viability, T/C: 82.4%
[34]
  viability, T/C: 81%
[1]
  viability, T/C: 4.01%
[2]
  viability, T/C: 0.25%
[35]
  viability, T/C: 33.5%
[36]
  viability, T/C: 22.1%
[37]
  viability, T/C: 30.2%
[38]
  viability, T/C: 25%
[7]
  viability, T/C: 0.36%
[8]
  viability, T/C: 0.13%
[39]
  viability, T/C: 10.5%
[40]
  viability, T/C: 10%
[41]
  viability, T/C: 10.2%
[42]
  viability, T/C: 10.8%
[13]
  viability, T/C: 0.42%
[14]
  viability, T/C: 0.12%
[43]
  viability, T/C: 5.98%
[44]
  viability, T/C: 6.67%
[45]
  viability, T/C: 6.96%
[46]
  viability, T/C: 6.39%
[19]
  viability, T/C: 0.53%
[20]
  viability, T/C: 0.12%
[47]
  viability, T/C: 5.15%
[48]
  viability, T/C: 4.38%
[49]
  viability, T/C: 4.75%
[50]
  viability, T/C: 4.63%
[25]
  viability, T/C: 0.23%
[26]
  viability, T/C: 0.32%

## CC(C)n1nc(-c2ccc3oc(N)nc3c2)c2c(N)ncnc21 + CC(C)NCC(C(=O)N1CCN(c2ncnc3c2C(C)CC3O)CC1)c1ccc(Cl)cc1
Second compound 0.3 µM
  IC50: 15 nM
Second compound 0.949 µM
  IC50: 1.51 nM
Second compound 3 µM
  IC50: < 0.316 nM
Second compound 9.49 µM
  IC50: < 0.316 nM
Second compound 30 µM
  IC50: < 0.316 nM
[31]
  viability, T/C: 95.8%
[32]
  viability, T/C: 97.5%
[33]
  viability, T/C: 81.4%
[34]
  viability, T/C: 62.4%
[1]
  viability, T/C: 29.9%
[2]
  viability, T/C: 18%
[35]
  viability, T/C: 62%
[36]
  viability, T/C: 63.8%
[37]
  viability, T/C: 26.7%
[38]
  viability, T/C: 20.4%
[7]
  viability, T/C: 14.1%
[8]
  viability, T/C: 9.37%
[39]
  viability, T/C: 17.9%
[40]
  viability, T/C: 22.1%
[41]
  viability, T/C: 14.9%
[42]
  viability, T/C: 10.1%
[13]
  viability, T/C: 9.06%
[14]
  viability, T/C: 7.73%
[43]
  viability, T/C: 9.8%
[44]
  viability, T/C: 12.5%
[45]
  viability, T/C: 7.29%
[46]
  viability, T/C: 7.54%
[19]
  viability, T/C: 4.98%
[20]
  viability, T/C: 4.87%
[47]
  viability, T/C: 6.54%
[48]
  viability, T/C: 6.66%
[49]
  viability, T/C: 5.92%
[50]
  viability, T/C: 3.93%
[25]
  viability, T/C: 3.59%
[26]
  viability, T/C: 3.29%

## CCCS(=O)(=O)Nc1ccc(F)c(C(=O)c2c[nH]c3ncc(-c4ccc(Cl)cc4)cc23)c1F + CC(C)NCC(C(=O)N1CCN(c2ncnc3c2C(C)CC3O)CC1)c1ccc(Cl)cc1
Second compound 0.3 µM
  IC50: 1900 nM
Second compound 0.949 µM
  IC50: < 316 nM
Second compound 3 µM
  IC50: < 316 nM
Second compound 9.49 µM
  IC50: < 316 nM
Second compound 30 µM
  IC50: < 316 nM
[3]
  viability, T/C: 78.3%
[4]
  viability, T/C: 66.9%
[5]
  viability, T/C: 38%
[6]
  viability, T/C: 12.7%
Second compound 0.3 µM, first compound 31.6 µM
  viability, T/C: 20%
Second compound 0.3 µM, first compound 100 µM
  viability, T/C: 46.3%
[9]
  viability, T/C: 29.6%
[10]
  viability, T/C: 26.4%
[11]
  viability, T/C: 20.5%
[12]
  viability, T/C: 10.8%
Second compound 0.949 µM, first compound 31.6 µM
  viability, T/C: 5.67%
Second compound 0.949 µM, first compound 100 µM
  viability, T/C: 17.3%
[15]
  viability, T/C: 18.5%
[16]
  viability, T/C: 14.3%
[17]
  viability, T/C: 11.6%
[18]
  viability, T/C: 4.96%
Second compound 3 µM, first compound 31.6 µM
  viability, T/C: 1.71%
Second compound 3 µM, first compound 100 µM
  viability, T/C: 12.3%
[21]
  viability, T/C: 9.5%
[22]
  viability, T/C: 7.83%
[23]
  viability, T/C: 7.41%
[24]
  viability, T/C: 2.4%
Second compound 9.49 µM, first compound 31.6 µM
  viability, T/C: 0.86%
Second compound 9.49 µM, first compound 100 µM
  viability, T/C: 7.59%
[27]
  viability, T/C: 5.18%
[28]
  viability, T/C: 5.41%
[29]
  viability, T/C: 2.16%
[30]
  viability, T/C: 0.51%
Second compound 30 µM, first compound 31.6 µM
  viability, T/C: 0.2%
Second compound 30 µM, first compound 100 µM
  viability, T/C: 1.89%

From PubChem BioAssay AID2060347 (Molecular Pharmacology Branch, DTP, NCI, 2025)
